Read-outs that look alike come from different tables or passages of the source.
Legend:
Format in all cases: cell-based
[1] = target: protein kinases (human kinome) (Homo sapiens, UniProt Q15118); conditions: PDK1 Q15118; experiment wp084
Text: (§1) Although development of targeted protein degraders requires a POI binder, among already-liganded proteins such as kinases, it was hypothesized that different targets would have a different propensity for current approaches to degrader-mediated destruction, which was termed ‘degradability’. […] It was rationalized that the probability of identifying the same kinase as a false positive in multiple treatments is low, therefore this analysis served to also assess the robustness of our data and subsequent interpretations. […] Overall, 62 protein kinases were degraded in more than 10 independent treatments, and remarkably, 9 of these (CDK4, AURKA, FER, WEE1, BLK. LIMK2, CDK6, GAK, LIMK1) were each degraded in at least 40 of the 154 independent treatments, emphasizing their predisposition to induced degradation (FIG. 1G; Appendix I).
(§2) Next, the frequency of degradation assessment was corrected for over-representation of molecules in the full dataset by omitting replicate profiling of compounds under different experimental conditions, to remove any bias. […] Unsurprisingly, the top degradable kinases mirror those from the previous analysis (CDK4, AURKA, FER, WEE1, BLK), confirming that in sufficiently large datasets, even with over-representation of certain molecules, frequency of degradation is a good measure of general tractability.

[2] = target: protein kinases (human kinome) (Homo sapiens, UniProt P30291); conditions: for logFC of WEE1: WEE1 P30291-1
Text: as §1, §2

[3] = target: protein kinases (human kinome) (Homo sapiens, UniProt P11802)
Text: as §1, §2

[4] = target: protein kinases (human kinome) (Homo sapiens, UniProt Q00534); conditions: for logFC CDK6: CDK6 (Q00534), direction down; for logFC of CDK6 (Q00534): down
Text: as §1, §2

[5] = target: protein kinases (human kinome) (Homo sapiens, UniProt P49840); conditions: GSK3A P49840; experiment wp056
Text: as §1, §2

[6] = target: protein kinases (human kinome) (Homo sapiens, UniProt Q2M2I8)
Text: as §1, §2

[7] = target: T1, protein kinases (human kinome) (Homo sapiens, UniProt O14965)
T1 sequence (O14965 1-403): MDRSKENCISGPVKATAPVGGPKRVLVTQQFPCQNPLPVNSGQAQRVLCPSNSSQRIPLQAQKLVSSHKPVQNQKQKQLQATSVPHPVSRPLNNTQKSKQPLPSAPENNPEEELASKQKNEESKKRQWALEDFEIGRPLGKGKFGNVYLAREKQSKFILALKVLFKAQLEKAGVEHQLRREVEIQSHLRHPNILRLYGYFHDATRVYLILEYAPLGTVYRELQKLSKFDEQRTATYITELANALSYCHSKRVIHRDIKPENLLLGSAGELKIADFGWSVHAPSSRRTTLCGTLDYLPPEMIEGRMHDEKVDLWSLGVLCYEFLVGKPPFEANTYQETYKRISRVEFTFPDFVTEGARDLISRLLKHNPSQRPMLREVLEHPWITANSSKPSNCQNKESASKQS
Text: as §1, §2

[8] = target: protein kinases (human kinome) (Homo sapiens, UniProt Q9NSY1); conditions: BMP2K Q9NSY1; experiment wp056
Text: as §1, §2

[9] = test system: protein kinases (human kinome); conditions: for logFC GSK3B: experiment wp056; for logFC: CDK9 (P50750-2) protein abundance, degrader vs DMSO, down; for logFC CSNK1D: experiment wp114
Text: as §1, §2

[10] = target: protein kinases (human kinome) (Homo sapiens, UniProt P53671); conditions: experiment wp016
Text: as §1, §2

[11] = target: protein kinases (human kinome) (Homo sapiens, UniProt Q9NYV4)
Text: as §1, §2

[12] = target: protein kinases (human kinome) (Homo sapiens, UniProt P24941)
Text: as §1, §2

[13] = target: protein kinases (human kinome) (Homo sapiens, UniProt P16591); conditions: for logFC of FER (P16591-1): down; for logFC of FER: FER P16591-1
Text: as §1, §2

[14] = target: protein kinases (human kinome) (Homo sapiens, UniProt P50613); conditions: for logFC: CDK7 (P50613) protein abundance, degrader vs DMSO, down; for logFC CDK7: CDK7 P50613
Text: as §1, §2

[15] = target: T2, protein kinases (human kinome) (Homo sapiens, UniProt Q08881); conditions: experiment wp016
T2 sequence (Q08881 1-620): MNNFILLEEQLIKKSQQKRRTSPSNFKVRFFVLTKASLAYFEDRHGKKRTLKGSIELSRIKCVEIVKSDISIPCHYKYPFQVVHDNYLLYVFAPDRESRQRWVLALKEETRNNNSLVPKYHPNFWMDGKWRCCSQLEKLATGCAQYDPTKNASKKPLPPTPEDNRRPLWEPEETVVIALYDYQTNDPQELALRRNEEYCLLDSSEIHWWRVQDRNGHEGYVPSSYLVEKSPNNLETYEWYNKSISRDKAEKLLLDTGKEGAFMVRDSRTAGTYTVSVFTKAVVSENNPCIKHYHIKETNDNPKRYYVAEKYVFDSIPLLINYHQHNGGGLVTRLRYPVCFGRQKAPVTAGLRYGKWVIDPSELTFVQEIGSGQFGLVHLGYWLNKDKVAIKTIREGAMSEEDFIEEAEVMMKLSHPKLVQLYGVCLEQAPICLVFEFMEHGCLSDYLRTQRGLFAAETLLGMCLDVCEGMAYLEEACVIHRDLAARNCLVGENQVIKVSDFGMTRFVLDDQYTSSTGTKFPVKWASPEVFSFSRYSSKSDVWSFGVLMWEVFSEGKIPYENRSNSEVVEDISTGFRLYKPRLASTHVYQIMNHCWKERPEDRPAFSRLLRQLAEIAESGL
Text: as §1, §2

[16] = target: protein kinases (human kinome) (Homo sapiens, UniProt P51451)
Text: as §1, §2

[17] = target: protein kinases (human kinome) (Homo sapiens, UniProt Q00535)
Text: as §1, §2

[18] = target: protein kinases (human kinome) (Homo sapiens, UniProt Q14289)
Text: as §1, §2

[19] = target: protein kinases (human kinome) (Homo sapiens, UniProt Q00537); conditions: for logFC of CDK17: Accession Q00537; for logFC CDK17 (Q00537): direction of change down
Text: as §1, §2

[20] = target: protein kinases (human kinome) (Homo sapiens, UniProt Q05397); conditions: experiment wp011
Text: as §1, §2

[21] = target: protein kinases (human kinome) (Homo sapiens, UniProt P06493); conditions: CDK1 P06493; experiment wp146
Text: as §1, §2

[22] = target: protein kinases (human kinome) (Homo sapiens, UniProt P45984); conditions: MAPK9 P45984-1; experiment wp146
Text: as §1, §2

[23] = target: protein kinases (human kinome) (Homo sapiens, UniProt Q8TDR2); conditions: experiment wp114
Text: as §1, §2

[24] = experiment wp016, direction of change down
[25] = experiment wp146, direction of change down

protein kinases (human kinome) (Homo sapiens, UniProt P11802), sequence (P11802 whole entry): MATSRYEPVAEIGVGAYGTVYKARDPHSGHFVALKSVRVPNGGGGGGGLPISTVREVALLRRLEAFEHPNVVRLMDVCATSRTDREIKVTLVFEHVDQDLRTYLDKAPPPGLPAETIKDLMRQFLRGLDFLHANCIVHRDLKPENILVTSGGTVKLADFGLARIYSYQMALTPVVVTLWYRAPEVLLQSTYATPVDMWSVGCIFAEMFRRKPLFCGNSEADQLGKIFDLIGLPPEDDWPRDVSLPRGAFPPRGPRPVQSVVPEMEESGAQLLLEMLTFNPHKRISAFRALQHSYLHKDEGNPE
protein kinases (human kinome) (Homo sapiens, UniProt Q9NYV4), sequence (Q9NYV4 whole entry): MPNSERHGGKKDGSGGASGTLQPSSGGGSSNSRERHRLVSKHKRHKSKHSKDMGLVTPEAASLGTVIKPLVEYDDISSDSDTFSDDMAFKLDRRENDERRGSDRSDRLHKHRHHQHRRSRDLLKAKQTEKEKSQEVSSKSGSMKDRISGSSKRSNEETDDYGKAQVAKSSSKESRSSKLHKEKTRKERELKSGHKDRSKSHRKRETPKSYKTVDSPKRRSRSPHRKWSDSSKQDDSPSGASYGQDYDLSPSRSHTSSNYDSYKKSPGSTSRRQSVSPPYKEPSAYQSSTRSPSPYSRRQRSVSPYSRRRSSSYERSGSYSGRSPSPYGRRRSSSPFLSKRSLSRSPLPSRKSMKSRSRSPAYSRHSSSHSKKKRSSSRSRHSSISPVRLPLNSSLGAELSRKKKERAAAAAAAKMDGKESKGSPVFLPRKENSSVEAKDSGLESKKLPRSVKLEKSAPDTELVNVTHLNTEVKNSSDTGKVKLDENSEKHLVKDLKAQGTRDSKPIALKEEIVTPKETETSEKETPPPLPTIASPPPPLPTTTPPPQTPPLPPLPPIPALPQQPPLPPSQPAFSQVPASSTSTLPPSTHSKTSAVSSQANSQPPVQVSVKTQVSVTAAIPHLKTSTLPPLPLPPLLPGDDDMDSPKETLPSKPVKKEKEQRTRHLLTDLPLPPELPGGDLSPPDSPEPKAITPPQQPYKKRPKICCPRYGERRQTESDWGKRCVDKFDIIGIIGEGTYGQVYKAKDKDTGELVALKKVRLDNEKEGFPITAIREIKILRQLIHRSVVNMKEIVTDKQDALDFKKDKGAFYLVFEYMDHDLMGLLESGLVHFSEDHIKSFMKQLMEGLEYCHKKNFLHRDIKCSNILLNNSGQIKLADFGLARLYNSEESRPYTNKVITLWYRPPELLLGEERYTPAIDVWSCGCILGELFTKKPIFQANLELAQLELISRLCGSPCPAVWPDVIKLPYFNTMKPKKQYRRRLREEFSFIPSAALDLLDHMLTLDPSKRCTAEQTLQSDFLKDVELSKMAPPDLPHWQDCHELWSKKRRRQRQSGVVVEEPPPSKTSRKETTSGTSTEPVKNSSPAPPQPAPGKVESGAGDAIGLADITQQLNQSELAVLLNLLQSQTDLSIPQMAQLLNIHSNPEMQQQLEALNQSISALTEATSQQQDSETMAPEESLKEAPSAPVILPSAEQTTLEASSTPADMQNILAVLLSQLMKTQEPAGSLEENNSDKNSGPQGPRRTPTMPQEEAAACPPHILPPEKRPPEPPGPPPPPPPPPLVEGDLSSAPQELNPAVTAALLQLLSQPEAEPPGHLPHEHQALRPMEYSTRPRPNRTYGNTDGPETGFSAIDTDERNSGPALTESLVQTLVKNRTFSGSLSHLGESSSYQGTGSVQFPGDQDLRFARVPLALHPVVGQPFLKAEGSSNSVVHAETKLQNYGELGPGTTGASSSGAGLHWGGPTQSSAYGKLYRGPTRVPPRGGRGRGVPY
protein kinases (human kinome) (Homo sapiens, UniProt Q00535), sequence (Q00535 whole entry): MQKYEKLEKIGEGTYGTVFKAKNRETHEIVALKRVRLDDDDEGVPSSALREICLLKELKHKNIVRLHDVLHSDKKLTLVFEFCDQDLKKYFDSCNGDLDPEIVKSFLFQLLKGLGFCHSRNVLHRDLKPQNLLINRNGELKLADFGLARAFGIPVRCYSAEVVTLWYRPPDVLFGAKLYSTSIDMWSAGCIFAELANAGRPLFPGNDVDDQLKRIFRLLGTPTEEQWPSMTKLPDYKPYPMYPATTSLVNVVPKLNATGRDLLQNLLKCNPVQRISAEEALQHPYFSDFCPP
protein kinases (human kinome) (Homo sapiens, UniProt Q00534), sequence (Q00534 whole entry): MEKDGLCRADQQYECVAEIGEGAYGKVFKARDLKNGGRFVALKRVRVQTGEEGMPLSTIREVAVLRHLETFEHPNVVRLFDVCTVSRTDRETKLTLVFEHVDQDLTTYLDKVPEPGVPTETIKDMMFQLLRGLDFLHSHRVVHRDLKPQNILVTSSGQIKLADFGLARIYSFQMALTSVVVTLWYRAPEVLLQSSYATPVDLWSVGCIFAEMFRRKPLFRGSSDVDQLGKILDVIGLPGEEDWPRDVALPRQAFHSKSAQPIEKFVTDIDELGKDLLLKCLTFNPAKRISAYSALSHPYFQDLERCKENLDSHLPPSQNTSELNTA
protein kinases (human kinome) (Homo sapiens, UniProt P50613), sequence (P50613 whole entry): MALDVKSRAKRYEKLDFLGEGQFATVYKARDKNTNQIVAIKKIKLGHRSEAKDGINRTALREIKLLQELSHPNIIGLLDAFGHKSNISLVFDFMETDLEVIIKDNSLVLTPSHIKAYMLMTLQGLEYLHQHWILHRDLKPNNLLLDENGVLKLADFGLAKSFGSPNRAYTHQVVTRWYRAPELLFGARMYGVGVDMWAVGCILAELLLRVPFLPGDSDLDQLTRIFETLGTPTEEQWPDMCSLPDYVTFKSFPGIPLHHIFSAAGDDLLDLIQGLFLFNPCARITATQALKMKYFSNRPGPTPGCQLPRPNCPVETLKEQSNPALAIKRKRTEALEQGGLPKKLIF
protein kinases (human kinome) (Homo sapiens, UniProt P30291), sequence (P30291 whole entry): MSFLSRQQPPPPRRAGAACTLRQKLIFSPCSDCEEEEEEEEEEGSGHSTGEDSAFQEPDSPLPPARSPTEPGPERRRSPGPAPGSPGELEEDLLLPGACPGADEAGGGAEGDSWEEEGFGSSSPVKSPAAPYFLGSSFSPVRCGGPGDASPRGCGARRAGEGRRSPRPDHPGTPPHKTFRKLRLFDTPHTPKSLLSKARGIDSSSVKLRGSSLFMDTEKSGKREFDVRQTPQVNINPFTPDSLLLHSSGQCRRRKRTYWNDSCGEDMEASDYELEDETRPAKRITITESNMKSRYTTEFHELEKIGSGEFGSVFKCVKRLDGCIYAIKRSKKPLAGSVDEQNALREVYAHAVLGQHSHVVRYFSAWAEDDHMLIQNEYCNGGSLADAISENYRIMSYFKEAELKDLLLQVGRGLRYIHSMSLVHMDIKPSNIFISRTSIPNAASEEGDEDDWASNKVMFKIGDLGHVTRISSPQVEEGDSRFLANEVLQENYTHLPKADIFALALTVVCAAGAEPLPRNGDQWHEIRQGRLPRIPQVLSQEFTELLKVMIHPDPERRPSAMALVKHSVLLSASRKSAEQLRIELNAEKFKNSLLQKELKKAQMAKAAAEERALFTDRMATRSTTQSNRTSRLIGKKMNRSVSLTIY
protein kinases (human kinome) (Homo sapiens, UniProt P16591), sequence (P16591 whole entry): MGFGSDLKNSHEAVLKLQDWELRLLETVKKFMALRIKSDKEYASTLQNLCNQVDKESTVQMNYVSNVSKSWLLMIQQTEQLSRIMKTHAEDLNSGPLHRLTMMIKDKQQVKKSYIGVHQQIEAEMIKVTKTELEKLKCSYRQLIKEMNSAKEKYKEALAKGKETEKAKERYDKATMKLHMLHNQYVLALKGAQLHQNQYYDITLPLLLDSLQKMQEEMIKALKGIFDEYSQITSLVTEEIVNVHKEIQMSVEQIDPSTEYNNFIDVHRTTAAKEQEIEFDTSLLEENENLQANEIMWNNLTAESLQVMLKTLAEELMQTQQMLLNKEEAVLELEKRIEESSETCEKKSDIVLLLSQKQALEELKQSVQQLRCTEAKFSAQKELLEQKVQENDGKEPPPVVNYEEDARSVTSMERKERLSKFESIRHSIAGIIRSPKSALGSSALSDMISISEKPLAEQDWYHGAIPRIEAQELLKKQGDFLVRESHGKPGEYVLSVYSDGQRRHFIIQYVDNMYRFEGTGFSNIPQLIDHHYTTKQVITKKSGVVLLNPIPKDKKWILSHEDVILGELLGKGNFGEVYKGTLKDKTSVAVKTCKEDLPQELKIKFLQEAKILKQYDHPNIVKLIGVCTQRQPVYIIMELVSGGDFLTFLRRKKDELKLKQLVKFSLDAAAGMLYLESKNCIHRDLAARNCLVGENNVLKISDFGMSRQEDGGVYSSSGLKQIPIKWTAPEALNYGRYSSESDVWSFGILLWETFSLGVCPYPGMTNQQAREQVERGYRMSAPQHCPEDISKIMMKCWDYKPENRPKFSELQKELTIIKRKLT
protein kinases (human kinome) (Homo sapiens, UniProt Q00537), sequence (Q00537 whole entry): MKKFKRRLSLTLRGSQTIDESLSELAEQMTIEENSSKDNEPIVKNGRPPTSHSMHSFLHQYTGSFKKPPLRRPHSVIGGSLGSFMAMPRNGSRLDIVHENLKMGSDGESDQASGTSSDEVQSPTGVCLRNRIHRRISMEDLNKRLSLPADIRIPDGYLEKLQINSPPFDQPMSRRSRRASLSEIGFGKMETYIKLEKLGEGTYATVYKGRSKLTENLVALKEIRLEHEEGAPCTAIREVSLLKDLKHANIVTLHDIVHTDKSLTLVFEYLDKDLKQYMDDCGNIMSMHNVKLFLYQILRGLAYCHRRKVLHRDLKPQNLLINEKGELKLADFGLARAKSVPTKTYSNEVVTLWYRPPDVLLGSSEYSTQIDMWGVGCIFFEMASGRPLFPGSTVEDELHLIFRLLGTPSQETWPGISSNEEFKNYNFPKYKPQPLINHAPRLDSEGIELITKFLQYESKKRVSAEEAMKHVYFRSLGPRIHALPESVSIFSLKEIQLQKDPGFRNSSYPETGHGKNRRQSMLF

## CC(=O)c1c(C)c2cnc(Nc3ccc(N4CCN(CCCCNC(=O)COc5cccc6c5C(=O)N(C5CCC(=O)NC5=O)C6=O)CC4)cn3)nc2n(C2CCCC2)c1=O (centres unmarked) [BSJ.03.204]
[1]
  logFC: −0.3767
  logFC PDK1: −0.3767
[2]; experiment wp084
  logFC of WEE1: −0.5774
  logFC WEE1 (P30291-1): −0.5774
[2]; experiment wp137
  logFC of WEE1: −0.6759
  logFC WEE1 (P30291-1): −0.6759
[3]; experiment wp084
  logFC CDK4 (P11802): −2.162
[3]; experiment wp137
  logFC CDK4 (P11802): −2.118
[4]; experiment wp084
  logFC CDK6: −3.574
[4]; experiment wp137
  logFC CDK6: −2.866
[4]; Experiment wp084
  logFC of CDK6 (Q00534): −3.574
[4]; Experiment wp137
  logFC of CDK6 (Q00534): −2.866

## N#CCc1ccc(Nc2nc(NCCCNC(=O)CCCCCCNC(=O)COc3cccc4c3C(=O)N(C3CCC(=O)NC3=O)C4=O)cc(Nc3cc(C4CC4)n[nH]3)n2)cc1 (centres unmarked) [SB1.G.190]
[5]
  logFC: −0.8894
  logFC GSK3A: −0.8894
[6]; AAK1 (Q2M218-1), experiment wp056, down
  logFC AAK1: −1.489
[6]; AAK1, accession Q2M218-1, experiment wp056, direction of change down
  logFC AAK1: −1.489
[7]; experiment wp056
  logFC AURKA (O14965): −0.843
[8]
  logFC: −0.3508
  logFC BMP2K: −0.3508
[9]; Accession P49841-2, direction down
  logFC GSK3B: −0.631
[9]; GSK3B P49841-2
  logFC GSK3B: −0.631

## CC(C)S(=O)(=O)c1ccccc1Nc1nc(Nc2ccc(N3CCN(CCOCCOCCOCCNC(=O)CNc4cccc5c4C(=O)N(C4CCC(=O)NC4=O)C5=O)CC3)cc2)ncc1Cl (centres unmarked) [SK.3.87]
[10]; LIMK2 (P53671), down
  logFC LIMK2: −0.378
[10]; LIMK2 P53671
  logFC of LIMK2: −0.378
[11]; Accession Q9NYV4-1, experiment wp016
  logFC CDK12: −0.5073
[11]; CDK12 (Q9NYV4-1), experiment wp016
  logFC CDK12: −0.5073
[12]; experiment wp016
  logFC CDK2 (P24941-1): −0.3797
[12]; [24]
  logFC CDK2 (P24941-1): −0.3797
[13]; Experiment wp016
  logFC of FER (P16591-1): −1.97
[13]; experiment wp016
  logFC of FER: −1.97
[14]
  logFC: −0.5325
[14]; experiment wp016
  logFC CDK7: −0.5325
[2]; experiment wp016
  logFC WEE1 (P30291-1): −0.9273
[15]
  logFC ITK (Q08881): −1.868
[15]; direction of change down
  logFC ITK (Q08881): −1.868
[16]; BLK P51451, experiment wp016
  logFC of BLK: −0.9329
[16]; Experiment wp016, down
  logFC of BLK (P51451): −0.9329
[17]; Accession Q00535, experiment wp016
  logFC of CDK5: −0.5732
[17]; [24]
  logFC CDK5 (Q00535): −0.5732
[6]; AAK1 (Q2M218-1), experiment wp016, down
  logFC AAK1: −0.7307
[6]; AAK1, accession Q2M218-1, experiment wp016, direction of change down
  logFC AAK1: −0.7307
[7]; experiment wp016
  logFC AURKA (O14965): −1.381
[18]; PTK2B (Q14289-1) protein abundance, degrader vs DMSO, down
  logFC: −3.217
[18]; PTK2B, accession Q14289-1, experiment wp016, direction of change down
  logFC PTK2B: −3.217
[9]
  logFC: −0.4714
[9]; LCK, accession P06239-3, experiment wp016, direction of change down
  logFC LCK: −0.3484
[9]; experiment wp016
  logFC CDK9 (P50750-2): −0.4714
[9]; [24]
  logFC LCK (P06239-3): −0.3484
[19]; experiment wp016
  logFC of CDK17: −0.6139
  logFC CDK17 (Q00537): −0.6139

## COc1cc(N2CCN(CCOCCOCCNC(=O)CNc3cccc4c3C(=O)N(C3CCC(=O)NC3=O)C4=O)CC2)ccc1Nc1ncc(Cl)c(Nc2ccccc2S(=O)(=O)C(C)C)n1 (centres unmarked) [TL13.12]
[13]; Experiment wp011
  logFC of FER (P16591-1): −0.8459
[13]; experiment wp011
  logFC of FER: −0.8459
[7]; experiment wp011
  logFC AURKA (O14965): −0.5988
[20]; Accession Q05397, direction down
  logFC PTK2: −1.365
[20]; PTK2 Q05397
  logFC PTK2: −1.365

## NC(=O)c1c(F)cccc1Nc1nc(NC2CCN(S(=O)(=O)CCNC(=O)CCCCCCCCOc3cccc4c3C(=O)N(C3CCC(=O)NC3=O)C4=O)CC2)ncc1Br (centres unmarked) [TMX.01.160]
[11]; Accession Q9NYV4-1, experiment wp146
  logFC CDK12: −0.5118
[11]; CDK12 (Q9NYV4-1), experiment wp146
  logFC CDK12: −0.5118
[12]; experiment wp146
  logFC CDK2 (P24941-1): −1.971
[12]; [25]
  logFC CDK2 (P24941-1): −1.971
[14]
  logFC: −0.601
[14]; experiment wp146
  logFC CDK7: −0.601
[21]
  logFC: −1.423
  logFC CDK1: −1.423
[17]; experiment wp146
  logFC CDK5 (Q00535): −2.901
[17]; [25]
  logFC CDK5 (Q00535): −2.901
[7]; experiment wp146
  logFC AURKA (O14965): −2.621
[22]
  logFC: −3.32
  logFC MAPK9: −3.32
[9]
  logFC: −1.181
[9]; Experiment wp146, direction down
  logFC MAPK8 (P45983-4): −2.112
[9]; MAPK8 P45983-4, experiment wp146
  logFC MAPK8: −2.112
[9]; RPS6KA1 (Q15418-2), experiment wp146
  logFC RPS6KA1: −0.4317
[9]; experiment wp146
  logFC CDK9 (P50750-2): −1.181
  logFC CDK16 (Q00536-2): −1.11
  logFC RPS6KA1 (Q15418-2): −0.4317
[19]; experiment wp146
  logFC of CDK17: −1.627
  logFC CDK17 (Q00537): −1.627

## Nc1ncc(-c2ccc(S(=O)(=O)N(CCCNC(=O)CCOCCOCCOCCOCCOCCNc3cccc4c3C(=O)N(C3CCC(=O)NC3=O)C4=O)C3CC3)cc2)cc1-c1ccc2c(c1)CCNC2=O (centres unmarked) [WH.10414.099]
[23]; Accession Q8TDR2, direction down
  logFC STK35: −0.8902
[23]; STK35 (Q8TDR2)
  logFC STK35: −0.8902
[9]; Accession P48730-2, direction down
  logFC CSNK1D: −0.6187
[9]; CSNK1D P48730-2
  logFC CSNK1D: −0.6187

— patent US20240269139A1, “COMPOUNDS FOR TARGETED PROTEIN DEGRADATION OF KINASES” (DANA-FARBER CANCER INSTITUTE, INC., priority 2020, published 2024)
